Measured values published in publication PMC7377239, “Cardiovascular Effects of Polychlorinated Biphenyls and Their Major Metabolites” (Environmental Health Perspectives, 2020).
Where two headings read alike, the source gives them in different places.

Experiments:
HUVECs = test: High-content imaging cytotoxicity in HUVECs, 24 h; format: cell-based, human; settings: Homo sapiens, HUVEC, 24 h, HUVECs; for viability at 0.01 µM / activity at 0.01 µM / viability at 0.1 µM / activity at 0.1 µM / viability at 1 µM / activity at 1 µM / viability at 10 µM / activity at 10 µM / viability at 100 µM / activity at 100 µM: 0.00 µM = 100.00; for viability at 0.1 µM / activity at 0.1 µM: 0.10 µM; for minimal effective concentration: top concentration 100.00 µM
Description: Similar to the cultivation of iCell®-endothelial cells, HUVEC maintenance and experimentation are detailed elsewhere ([Iwata et al. 2017]). Briefly, HUVECs were thawed, seeded, and grown in T75 tissue culture flasks in Medium 199 with EGM™-2 BulletKits™. HUVECs were incubated at regular cell culture conditions, 37°C and 5% CO2 , and passaged every 2–3 d using TrypLE™ Express. To ensure adequate endothelial function, experiments were performed with cells between passages 1 and 5.
Cytotoxicity was assessed in parallel experiments. For iCell®-endothelial cells, 384-well plates were coated with a 30μg/mL fibronectin solution ( 10μL/well ) and incubated for 2 h at RT. iCell®-endothelial cells were dissociated with TrypLE™ Express and prepared into a solution to achieve 750 cells per well and 50μL of total volume. The fibronectin solution was removed from the 384-well plate, and cells were plated. For HUVECs, similar dissociation and the same cell density were used for plating with the exclusion of the fibronectin solution. Cells were incubated at 37°C and 5% CO2 until a monolayer was formed, typically 3–5 d. 2×PCB plates were created with the requisite maintenance medium. Before treatment, the medium in the wells was exchanged to 25μL/well of fresh maintenance medium. 2×PCB chemical solutions ( […] ) were added. After 24 h incubation at 37°C and 5% CO2 , cells were stained with Hoechst 33342, MitoTracker™ Orange, and calcein AM for 20 min before replacing the staining media with FluoroBright DMEM. Cell culture plates were imaged using the ImageXpress® Micro Confocal high-content imaging system (Molecular Devices). Images were acquired at 10× magnification with DAPI, TRITC, or FITC filter (Hoechst 33342, MitoTracker™, or calcein AM, respectively). The multiwavelength cell scoring applications module in MetaXpress™ (Molecular Devices) was used to analyze the images.
(§1) Phenotypic responses were quantitatively assessed using concentration–response modeling as detailed elsewhere ([Sirenko et al. 2017]). Briefly, phenotypic readouts were normalized to vehicle controls and fit to a four-parameter logistic model in R studio software (version 3.1.1; R Development Core Team). Following EPA guidance on dose–response modeling, a cutoff of one standard deviation across means of vehicle control (i.e., 0.5% vol/vol DMSO in cell culture media) wells was applied to determine the point-of-departure (POD) values ([U.S. EPA 2012]). In the absence of a concentration–response, the highest tested concentration (i.e., 100μM ) was assigned as “no observable adverse effect level.” The concentration–response assessment R script, as well as templates for vehicle and concentration–response data, are available as a supplement to Sirenko et al. ([2017]). The ability of physicochemical properties to predict differences in PODs were evaluated by multiregression and mixed-effects modeling using R.

[1] = tested on: iCell cardiomyocytes (human iPSC-derived cardiomyocytes); test: High-content imaging of cytotoxicity and mitochondrial integrity in iPSC-CMs; format: cell-based; settings: Homo sapiens; for viability at 0.01 µM / activity at 0.01 µM / viability at 0.1 µM / activity at 0.1 µM / viability at 1 µM / activity at 1 µM / viability at 10 µM / activity at 10 µM / viability at 100 µM / activity at 100 µM: Cardiomyocyte, 0.00 µM = 100.00; for viability at 0.1 µM / activity at 0.1 µM: 0.10 µM; for minimal effective concentration: iPSC-CM
Description: Details on cardiomyocyte cell culture are described in detail elsewhere ([Grimm et al. 2015b]; [Sirenko et al. 2013a]). Briefly, tissue-culture treated 384 well plates were gelatinized with 25μL per well of 0.1% (w/v) gelatin in water for 2 h at 37°C and 5% CO2 . Individual vials of cells were thawed for 4 min in a water bath maintained at 37°C. Thawed cells were resuspended in 10ml plating medium containing 1:500 (vol/vol) penicillin/streptomycin solution at room temperature (RT). Live cell counts for each cell suspension were determined by trypan blue staining and cells were further diluted to provide final cell densities of 2×10^5 viable cells/ml. Thus, 5,000 cells suspended in 25μL media were transferred per well after the gelatin solution had been discarded. Cell culture plates were rested for 30 min at RT before they were incubated for 48 h at 37°C and 5% CO2 . Then, a media exchange with 30μL of fresh maintenance medium containing 1:500 (vol/vol) penicillin/streptomycin solution was performed, and cell media were subsequently changed every 48 h for 12 d. On the experiment day, the medium was completely exchanged with either 25μL (for Ca^2+ flux assay) or 40μL (for imaging) of fresh medium.
Cytotoxicity and effects on mitochondrial integrity of various PCBs and PCB metabolites in induced pluripotent stem cell-CMs (iPSC-CMs) were assessed using high-content cellular imaging in ImageXpress® Micro Confocal (Molecular Devices) as detailed in ([Grimm et al. 2015b]). Cells in 40μL maintenance media were treated with 10μL of 5× chemical solutions to provide test chemicals at final assay concentrations ranging from 0.01 to 100μM . […] Next, sample wells were treated with 50μL equilibrated 2× concentrated staining solution (maintenance medium containing Hoechst 33342, 4μg/mL and MitoTracker™ Orange, 0.4μM ). Microplates were then incubated for 15 min at 37°C and 5% CO2 before cells were washed twice with 30μL maintenance medium. All media were aspirated and discarded, and cells were fixed with […] of a 3.7% formaldehyde solution for 15 min at 37°C and 5% […] . Fixed cells were washed 3× with 25μL PBS before image acquisition using the DAPI (Hoechst 33342) and Cy3 (MitoTracker™ Orange) filters at 10× magnification on the ImageXpress® Micro Confocal high-content confocal microscope (Molecular Devices). The multiwavelength cell scoring applications module in MetaXpress® was used to analyze acquired images.
as §1

[2] = 24 hr, read-out: huvec.cyto.24hr
[3] = 24 hr, read-out: huvec.mito.24hr
[4] = 24 hr, read-out: huvec.mitoint.24hr
[5] = 24 hr, read-out: huvec.nma.24hr
[6] = 24 hrs, read-out: huvec.tc.24hrs

Compound: Clc1ccc(-c2ccccc2)cc1 [PCB3]
- viability at 0.01 µM (HUVECs; [2]): 83.5%
- activity at 0.01 µM (HUVECs; [3]): 83.3%
- activity at 0.01 µM (HUVECs; [4]): 93.5%
- activity at 0.01 µM (HUVECs; [5]): 94.7%
- viability at 0.1 µM (HUVECs; [2]): 87.1%
- activity at 0.1 µM (HUVECs; [3]): 86.7%
- activity at 0.1 µM (HUVECs; [4]): 118%
- activity at 0.1 µM (HUVECs; [5]): 93%
- viability at 1 µM (HUVECs; [2]): 73.5%
- activity at 1 µM (HUVECs; [3]): 72.5%
- activity at 1 µM (HUVECs; [4]): 97.5%
- activity at 1 µM (HUVECs; [5]): 93.1%
- viability at 10 µM (HUVECs; [2]): 87.9%
- activity at 10 µM (HUVECs; [3]): 85.4%
- activity at 10 µM (HUVECs; [4]): 76%
- activity at 10 µM (HUVECs; [5]): 85.2%
- viability at 100 µM (HUVECs; [2]): 56%
- activity at 100 µM (HUVECs; [3]): 44.6%
- activity at 100 µM (HUVECs; [4]): 51%
- activity at 100 µM (HUVECs; [5]): 71%
- minimal effective concentration (HUVECs; 24 hr, read-out: huvec.cyto.24hr POD): 100 µM
- minimal effective concentration (HUVECs; 24 hr, read-out: huvec.mito.24hr POD): 100 µM
- minimal effective concentration (HUVECs; 24 hr, read-out: huvec.mitoint.24hr POD): 100 µM
- minimal effective concentration (HUVECs; 24 hr, read-out: huvec.nma.24hr POD): 100 µM
- viability at 0.01 µM (HUVECs; [6]): 83.5%
- viability at 0.1 µM (HUVECs; [6]): 87.1%
- viability at 1 µM (HUVECs; [6]): 73.7%
- viability at 10 µM (HUVECs; [6]): 88%
- viability at 100 µM (HUVECs; [6]): 56.1%
- minimal effective concentration (HUVECs; 24 hrs, read-out: huvec.tc.24hrs POD): 100 µM
- viability at 0.01 µM ([1]; 1.5 h, read-out: cm.cam.90min): 104%
- activity at 0.01 µM ([1]; 1.5 h, read-out: cm.mii.90min): 107%
- activity at 0.01 µM ([1]; 1.5 h, read-out: cm.mito.90min): 104%
- viability at 0.01 µM ([1]; 1.5 h, read-out: cm.tc.90min): 104%
- viability at 0.1 µM ([1]; 1.5 h, read-out: cm.cam.90min): 97.8%
- activity at 0.1 µM ([1]; 1.5 h, read-out: cm.mii.90min): 103%
- activity at 0.1 µM ([1]; 1.5 h, read-out: cm.mito.90min): 97.7%
- viability at 0.1 µM ([1]; 1.5 h, read-out: cm.tc.90min): 97.7%
- viability at 1 µM ([1]; 1.5 h, read-out: cm.cam.90min): 98.5%
- activity at 1 µM ([1]; 1.5 h, read-out: cm.mii.90min): 104%
- activity at 1 µM ([1]; 1.5 h, read-out: cm.mito.90min): 98.3%
- viability at 1 µM ([1]; 1.5 h, read-out: cm.tc.90min): 98.2%
- viability at 10 µM ([1]; 1.5 h, read-out: cm.cam.90min): 99.9%
- activity at 10 µM ([1]; 1.5 h, read-out: cm.mii.90min): 109%
- activity at 10 µM ([1]; 1.5 h, read-out: cm.mito.90min): 99.6%
- viability at 10 µM ([1]; 1.5 h, read-out: cm.tc.90min): 99.5%
- viability at 100 µM ([1]; 1.5 h, read-out: cm.cam.90min): 40.3%
- activity at 100 µM ([1]; 1.5 h, read-out: cm.mii.90min): 141%
- activity at 100 µM ([1]; 1.5 h, read-out: cm.mito.90min): 39.3%
- viability at 100 µM ([1]; 1.5 h, read-out: cm.tc.90min): 40.4%
- viability at 0.01 µM ([1]; 24 h, read-out: cm.cam.24hrs): 87.6%
- activity at 0.01 µM ([1]; 24 h, read-out: cm.mii.24hrs): 109%
- activity at 0.01 µM ([1]; 24 h, read-out: cm.mito.24hrs): 84.7%
- viability at 0.01 µM ([1]; 24 h, read-out: cm.tc.24hrs): 87.2%
- viability at 0.1 µM ([1]; 24 h, read-out: cm.cam.24hrs): 96%
- activity at 0.1 µM ([1]; 24 h, read-out: cm.mii.24hrs): 101%
- activity at 0.1 µM ([1]; 24 h, read-out: cm.mito.24hrs): 93.1%
- viability at 0.1 µM ([1]; 24 h, read-out: cm.tc.24hrs): 95.9%
- viability at 1 µM ([1]; 24 h, read-out: cm.cam.24hrs): 95.4%
- activity at 1 µM ([1]; 24 h, read-out: cm.mii.24hrs): 97.1%
- activity at 1 µM ([1]; 24 h, read-out: cm.mito.24hrs): 91%
- viability at 1 µM ([1]; 24 h, read-out: cm.tc.24hrs): 95.3%
- viability at 10 µM ([1]; 24 h, read-out: cm.cam.24hrs): 91.4%
- activity at 10 µM ([1]; 24 h, read-out: cm.mii.24hrs): 87.2%
- activity at 10 µM ([1]; 24 h, read-out: cm.mito.24hrs): 87.8%
- viability at 10 µM ([1]; 24 h, read-out: cm.tc.24hrs): 90.8%
- viability at 100 µM ([1]; 24 h, read-out: cm.cam.24hrs): 1.51%
- activity at 100 µM ([1]; 24 h, read-out: cm.mii.24hrs): 32%
- activity at 100 µM ([1]; 24 h, read-out: cm.mito.24hrs): 0.72%
- viability at 100 µM ([1]; 24 h, read-out: cm.tc.24hrs): 1.49%
- minimal effective concentration ([1]; 1.5 h, read-out: cm.cam.90min POD): 24.9 µM
- minimal effective concentration ([1]; 1.5 h, read-out: cm.mii.90min POD): 6.86 µM
- minimal effective concentration ([1]; 1.5 h, read-out: cm.mito.90min POD): 21.2 µM
- minimal effective concentration ([1]; 1.5 h, read-out: cm.tc.90min POD): 20 µM
- minimal effective concentration ([1]; 24 h, read-out: cm.cam.24hrs POD): 7.4 µM
- minimal effective concentration ([1]; 24 h, read-out: cm.mii.24hrs POD): 10.9 µM
- minimal effective concentration ([1]; 24 h, read-out: cm.mito.24hrs POD): 6.67 µM
- minimal effective concentration ([1]; 24 h, read-out: cm.tc.24hrs POD): 6.97 µM
